34 compounds from patent US10487068B2, “Pyridazine derivatives as RORc modulators” (Genentech, Inc., priority 2015, dated 2019) can be followed below.

The target of this assay is T1, RORc ligand binding domain (Homo sapiens, UniProt P51449).
T1 sequence (P51449 269-508 limits assumed): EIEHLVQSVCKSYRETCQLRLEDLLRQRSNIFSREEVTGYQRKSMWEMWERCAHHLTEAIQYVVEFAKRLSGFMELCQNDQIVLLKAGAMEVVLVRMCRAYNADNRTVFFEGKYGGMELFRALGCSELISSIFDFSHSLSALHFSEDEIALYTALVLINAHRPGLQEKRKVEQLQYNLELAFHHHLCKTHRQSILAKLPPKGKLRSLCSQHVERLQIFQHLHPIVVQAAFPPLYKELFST
Description: In Vitro RORc Ligand Binding Assay. Particulars: RORc IC50, radioligand 25-[3H]hydroxycholesterol 6 nM; 0.6 ug/mL RORc receptor; 3 h at 25° C.

For orientation: IC50 means the concentration that gives 50% inhibition. The low end stands for higher potency, the high end for lower potency. `CC(C)(O)CNC(=O)c1cccc([C@@]23CC[C@@H](c4cc(-c5c(F)cccc5F)nnc42)C3(C)C)n1` [Example 63, 6-((5R,8S)-3-(2,6-difluorophenyl)-9,9-dimethyl-5,6,7,8-tetrahydro-5,8-methanocinnolin-8-yl)-N-(2-hydroxy-2-methylpropyl)picolinamide]: the half-inhibitory concentration (IC50) turned out to be 53.1 nM. The same measure for `CC1(C)[C@H]2CC[C@]1(c1cncc(-c3nc([C@H](O)C(F)(F)F)co3)n1)c1nnc(-c3c(F)cccc3F)cc12` [Example 366, (S)-1-(2-(6-((5R,8S)-3-(2,6-difluorophenyl)-9,9-dimethyl-5,6,7,8-tetrahydro-5,8-methanocinnolin-8-yl)pyrazin-2-yl)oxazol-4-yl)-2,2,2-trifluoroethanol]: 3.5 nM. The same measure for `CC1(C)[C@H]2CC[C@]1(c1cncc(-c3nc(C(=O)NCCO)co3)n1)c1nnc(-c3c(F)cccc3F)cc12` [Example 326, 2-(6-((5R,8S)-3-(2,6-difluorophenyl)-9,9-dimethyl-5,6,7,8-tetrahydro-5,8-methanocinnolin-8-yl)pyrazin-2-yl)-N-(2-hydroxyethyl)oxazole-4-carboxamide]: 10.1 nM.

Regarding `CC1(C)[C@H]2CC[C@]1(c1ccnc(N3CC(C(N)=O)C3)n1)c1nnc(-c3c(F)cccc3F)cc12` [Example 299], the IC50 came to 24.1 nM.

With `CC1(C)[C@H]2CC[C@]1(c1ccnc(C3CCN(C(=O)CO)CC3)n1)c1nnc(-c3c(F)cccc3F)cc12` [Example 355], the IC50 turned out to be 12.4 nM. As for `CC1(C)[C@H]2CC[C@]1(c1cc(CO)ccn1)c1nnc(-c3c(F)cccc3F)cc12` [Example 79], the IC50 was found to be 47.3 nM.

Consider `CC1(C)[C@@H]2CC[C@@]1(c1cncc(C(=O)NC3COC3)n1)c1nnc(-c3c(F)cccc3F)cc12` [Example 82, 6-((5S,8R)-3-(2,6-difluorophenyl)-9,9-dimethyl-5,6,7,8-tetrahydro-5,8-methanocinnolin-8-yl)-N-(oxetan-3-yl)pyrazine-2-carboxamide], for which the IC50 is 129 nM. In turn, `CC1(C)[C@H]2CC[C@]1(c1ccnc(-n3cnc(CO)n3)n1)c1nnc(-c3c(F)cccc3F)cc12` [Example 368] had a half-maximal inhibitory concentration (IC50) of 5.4 nM. `CC1(C)[C@H]2CC[C@]1(c1nc(C(=O)NCCO)ncc1Cl)c1nnc(-c3c(F)cccc3F)cc12` [Example 230] displayed a half-inhibitory concentration (IC50) of 55.2 nM. To `CC1(C)[C@H]2CC[C@]1(c1ccnc(-c3cc[nH]c(=O)c3)n1)c1nnc(-c3c(F)cccc3F)cc12` [Example 386] belongs 9.8 nM; to `CC1(C)[C@H]2CC[C@]1(c1cccc(C(=O)Nc3c[nH]c(=O)cn3)n1)c1nnc(-c3c(F)cccc3F)cc12` [Example 96, 6-((5R,8S)-3-(2,6-difluorophenyl)-9,9-dimethyl-5,6,7,8-tetrahydro-5,8-methanocinnolin-8-yl)-N-(5-oxo-4,5-dihydropyrazin-2-yl)picolinamide], 34.3 nM; to `CC1(C)[C@H]2CC[C@]1(c1ccnc(NCC3(O)COC3)n1)c1nnc(-c3c(F)cccc3F)cc12` [Example 132], 33.2 nM. The same measure for `CC1(C)[C@H]2CC[C@]1(c1nccc(-c3ccn[nH]3)n1)c1nnc(-c3c(F)cccc3F)cc12` [Example 302, (5R,8R)-8-(4-(1H-pyrazol-5-yl)pyrimidin-2-yl)-3-(2,6-difluorophenyl)-9,9-dimethyl-5,6,7,8-tetrahydro-5,8-methanocinnoline]: 9.9 nM; for `COCCNC(=O)c1cncc([C@@]23CC[C@@H](c4cc(-c5c(F)cccc5F)nnc42)C3(C)C)n1` [Example 36, 6-((5R,8S)-3-(2,6-difluorophenyl)-9,9-dimethyl-5,6,7,8-tetrahydro-5,8-methanocinnolin-8-yl)-N-(2-methoxyethyl)pyrazine-2-carboxamide]: 37.1 nM. The same measure for `CC1(C)[C@H]2CC[C@]1(c1cccc(C(O)CO)n1)c1nnc(-c3c(F)cccc3F)cc12` (stereo partly drawn) [Example 237, 1-(6-((5R,8S)-3-(2,6-difluorophenyl)-9,9-dimethyl-5,6,7,8-tetrahydro-5,8-methanocinnolin-8-yl)pyridin-2-yl)ethane-1,2-diol]: 2.6 nM; for `CC1(C)[C@H]2CC[C@]1(c1cnc(C#N)c(C#N)n1)c1nnc(-c3c(F)cccc3F)cc12` [Example 159, 5-((5R,8S)-3-(2,6-difluorophenyl)-9,9-dimethyl-5,6,7,8-tetrahydro-5,8-methanocinnolin-8-yl)pyrazine-2,3-dicarbonitrile]: 548 nM. `CC1(C)[C@H]2CC[C@]1(c1nc(C(=O)NCCO)ncc1F)c1nnc(-c3c(F)cccc3F)cc12` [Example 218] displayed a concentration for half-maximal inhibition (IC50) of 60.7 nM. `Cc1cc([C@@]23CC[C@@H](c4cc(-c5c(F)cccc5F)nnc42)C3(C)C)nc(C#N)n1` [Example 228] registered an IC50 of 15.3 nM. To `CC1(C)[C@H]2CC[C@]1(c1ccnc(NC(CO)CO)n1)c1nnc(-c3c(F)cccc3F)cc12` [Example 122] belongs 38.6 nM; to `CC1(C)[C@H]2CC[C@]1(c1cncc(-c3nc(CS(=O)(=O)C4CC4)co3)n1)c1nnc(-c3c(F)cccc3F)cc12` [Example 435, 4-((cyclopropylsulfonyl)methyl)-2-(6-((5R,8S)-3-(2,6-difluorophenyl)-9,9-dimethyl-5,6,7,8-tetrahydro-5,8-methanocinnolin-8-yl)pyrazin-2-yl)oxazole], 11.7 nM; to `C[C@H](O)Cn1ccc(-c2cncc([C@@]34CC[C@@H](c5cc(-c6c(F)cccc6F)nnc53)C4(C)C)n2)n1` [Example 417, (S)-1-(3-(6-((5R,8S)-3-(2,6-difluorophenyl)-9,9-dimethyl-5,6,7,8-tetrahydro-5,8-methanocinnolin-8-yl)pyrazin-2-yl)-1H-pyrazol-1-yl)propan-2-ol], 5.6 nM. As to `CN(CCO)C(=O)c1cccc([C@@]23CC[C@@H](c4cc(-c5c(F)cccc5F)nnc42)C3(C)C)n1` [Example 38, 6-((5R,8S)-3-(2,6-difluorophenyl)-9,9-dimethyl-5,6,7,8-tetrahydro-5,8-methanocinnolin-8-yl)-N-(2-hydroxyethyl)-N-methylpicolinamide], the half-maximal inhibitory concentration (IC50) was 37.7 nM.

In the case of `C[C@@H](O)c1nnc(-c2cncc([C@@]34CC[C@@H](c5cc(-c6c(F)cccc6F)nnc53)C4(C)C)n2)[nH]1` [Example 225, (R)-1-(5-(6-((5R,8S)-3-(2,6-difluorophenyl)-9,9-dimethyl-5,6,7,8-tetrahydro-5,8-methanocinnolin-8-yl)pyrazin-2-yl)-4H-1,2,4-triazol-3-yl)ethanol], the IC50 was 21 nM.

Consider `CC(C)(O)c1ncn(-c2nccc([C@@]34CC[C@@H](c5cc(-c6c(F)cccc6F)nnc53)C4(C)C)n2)n1` [Example 276], for which the IC50 came out at 15.5 nM. The same measure for `CNS(=O)(=O)c1cncc([C@@]23CC[C@@H](c4cc(-c5c(F)cccc5F)nnc42)C3(C)C)n1` [Example 425, 6-((5R,8S)-3-(2,6-difluorophenyl)-9,9-dimethyl-5,6,7,8-tetrahydro-5,8-methanocinnolin-8-yl)-N-methylpyrazine-2-sulfonamide]: 11.4 nM; for `CC1(C)[C@H]2CC[C@]1(c1cc(=O)cco1)c1nnc(-c3c(F)cccc3F)cc12` [Example 22, 2-((5R,8R)-3-(2,6-difluorophenyl)-9,9-dimethyl-5,6,7,8-tetrahydro-5,8-methanocinnolin-8-yl)-4H-pyran-4-one]: 33.5 nM; for `CC[C@@H](O)c1n[nH]c(-c2cccc([C@@]34CC[C@@H](c5cc(-c6c(F)cccc6F)nnc53)C4(C)C)n2)n1` [Example 318, (R)-1-(5-(6-((5R,8S)-3-(2,6-difluorophenyl)-9,9-dimethyl-5,6,7,8-tetrahydro-5,8-methanocinnolin-8-yl)pyridin-2-yl)-1H-1,2,4-triazol-3-yl)propan-1-ol]: 10.8 nM.

In turn, `CCS(=O)(=O)Cc1coc(-c2cncc([C@@]34CC[C@@H](c5cc(-c6c(F)cccc6F)nnc53)C4(C)C)n2)n1` [Example 434, 2-(6-((5R,8S)-3-(2,6-difluorophenyl)-9,9-dimethyl-5,6,7,8-tetrahydro-5,8-methanocinnolin-8-yl)pyrazin-2-yl)-4-((ethylsulfonyl)methyl)oxazole] gave an IC50 of 11 nM.

With `Cc1ncn(-c2nccc([C@@]34CC[C@@H](c5cc(-c6c(F)cccc6F)nnc53)C4(C)C)n2)n1` [Example 212], the IC50 worked out at 28.1 nM. To `CC1(C)[C@H]2CC[C@]1(c1nccc(NCCO)n1)c1nnc(-c3c(F)cccc3F)cc12` [Example 97, 2-((2-((5R,8R)-3-(2,6-difluorophenyl)-9,9-dimethyl-5,6,7,8-tetrahydro-5,8-methanocinnolin-8-yl)pyrimidin-4-yl)amino)ethanol] belongs 98.3 nM; to `CC1(C)[C@H]2CC[C@]1(c1nc(C#N)ccc1Br)c1nnc(-c3c(F)cccc3F)cc12` [Example 166, 5-bromo-6-((5R,8S)-3-(2,6-difluorophenyl)-9,9-dimethyl-5,6,7,8-tetrahydro-5,8-methanocinnolin-8-yl)picolinonitrile], 3.9 nM.

As to `CC1(C)[C@H]2CC[C@]1(c1cncc(-c3nc([C@@](C)(O)C(F)(F)F)co3)n1)c1nnc(-c3c(F)cccc3F)cc12` [Example 427, (R)-2-(2-(6-((5R,8S)-3-(2,6-difluorophenyl)-9,9-dimethyl-5,6,7,8-tetrahydro-5,8-methanocinnolin-8-yl)pyrazin-2-yl)oxazol-4-yl)-1,1,1-trifluoropropan-2-ol], the IC50 worked out at 15.9 nM.

`CC1(C)[C@H]2CC[C@]1(c1cncc(C(=O)NCCC#N)n1)c1nnc(-c3c(F)cccc3F)cc12` [Example 90, N-(2-cyanoethyl)-6-((5R,8S)-3-(2,6-difluorophenyl)-9,9-dimethyl-5,6,7,8-tetrahydro-5,8-methanocinnolin-8-yl)pyrazine-2-carboxamide] registered an IC50 of 23 nM.

Take `CC1(C)[C@H]2CC[C@]1(c1ccnc(-c3ccnc(CO)c3)n1)c1nnc(-c3c(F)cccc3F)cc12` [Example 412]: the concentration for half-maximal inhibition (IC50) worked out at 7.1 nM.
